Experiment [1] has as its system zoospores of Plasmopora viticola. The following applies: according to DAÏ (1994); cited from earlier work.
Another experiment relates to Botrytis cinerea conidia. The conditions noted are these: according to PONT and PEZET (1990); cited from earlier work.
The subject of experiment [2] is Botrytis cinerea mycelium, strain 916T. The experiment is described as follows: Inhibition of the growth of Botrytis cinerea mycelium on malt medium containing resveratrol. It counts as cell-based. As to the method:
FIG. 9: Inhibition of the growth of Botrytis cinerea mycelium, strain 916T, after 7 days at 20° C.
The mycelium is cultured on a malt/glucose medium containing different concentrations of resveratrol.
A study was carried out of the action of the molecule on the growth of mycelial hyphae of Botrytis cinera in culture on a malt/agar medium containing a resveratrol dilution range of from 10^−1 M to 3.7.10^−3 M, with the hyphae being incubated at ambient temperature for 7 days. […] However, this inhibition […] progressively after 7 days of culture under these conditions, which are otherwise very favourable to the growth of the fungus. After 20 days, the fungus finally infects the whole of the culture surface.

pIC50: −log10 of the molar value.

Here are results for one molecule from US6800794B1, “Nucleic acid comprising the sequence of a promoter unductible by stress and a gene sequence coding for a stilbene synthase” (Champagne Moet & Chandon, priority 1998, dated 2004).

One may read the pIC50 as −log10 of the IC50, conventionally taken in molar units. For the molecule `Oc1ccc(C=Cc2cc(O)cc(O)c2)cc1` [resveratrol], in experiment [1], the “effect on the development of the zoospores” value was “inhibitory effect”. The “blocking of germination of conidia” value in the experiment with Botrytis cinerea conidia is listed as “does not block”. Further, the pIC50 in experiment [2] (Botrytis cinerea, 168 h, read-out: inhibitory effect on growth of mycelial hyphae (IC50), malt/agar medium, 7 days, ambient temperature (FIG. 9: 20° C.)) was 3.30. The “inhibitory activity on the growth of the mycelium” value in experiment [2] (at 37 μmol.^−1, 7 days) is “very slight inhibitory activity”. Moreover, the “concentrations giving an exponential decrease in the mean growth diameter of the fungus” value in experiment [2] (malt/agar medium, 7 days) is recorded as “greater than 125 μmol.1^−1”.
